Measurements as given in PMC11850817 (Scientific Reports, 2025).

Columns and labels:
[1] = biological target: WEE1 (Homo sapiens, UniProt P30291); experiment: Radiometric kinase assay; type: biochemical; conditions: read-out: Kinase inhibition (%) WEE1
[2] = system: AsPC-1; experiment: MTT antiproliferative assay, AsPC-1; type: cell-based, human; conditions: Homo sapiens, ASPC1, 72 h, read-out: IC50 AsPC-1
[3] = biological target: EGFR (Homo sapiens, UniProt P00533); experiment: Radiometric kinase assay; type: biochemical; conditions: read-out: Kinase inhibition (%) EGFR
[4] = biological target: NTRK1 (TrkA) (Homo sapiens, UniProt P04629); experiment: Radiometric kinase assay; type: biochemical; conditions: read-out: Kinase inhibition (%) NTRK1 (TrkA)
[5] = system: MCF-7; experiment: MTT antiproliferative assay, MCF-7; type: cell-based, human; conditions: Homo sapiens, MCF7, 72 h, read-out: IC50 MCF-7
[6] = biological target: FLT1 (VEGFR1) (Homo sapiens, UniProt P17948); experiment: Radiometric kinase assay; type: biochemical; conditions: read-out: Kinase inhibition (%) FLT1 (VEGFR1)
[7] = biological target: FGFR1 (Homo sapiens, UniProt P11362); experiment: Radiometric kinase assay; type: biochemical; conditions: read-out: Kinase inhibition (%) FGFR1
[8] = biological target: NTRK3 (TrkC) (Homo sapiens, UniProt Q16288); experiment: Radiometric kinase assay; type: biochemical; conditions: read-out: Kinase inhibition (%) NTRK3 (TrkC)
[9] = biological target: MAP2K1 (Homo sapiens, UniProt Q02750); experiment: Radiometric kinase assay; type: biochemical; conditions: read-out: Kinase inhibition (%) MAP2K1
[10] = biological target: KIT (c-Kit) (Homo sapiens, UniProt P10721); experiment: Radiometric kinase assay; type: biochemical; conditions: read-out: Kinase inhibition (%) KIT (c-Kit)
[11] = biological target: IGF1R (Homo sapiens, UniProt P08069); experiment: Radiometric kinase assay; type: biochemical; conditions: read-out: Kinase inhibition (%) IGF1R
[12] = biological target: FLT4 (VEGFR3) (Homo sapiens, UniProt P35916); experiment: Radiometric kinase assay; type: biochemical
[13] = biological target: CHEK1 (Homo sapiens, UniProt O14757); experiment: Radiometric kinase assay; type: biochemical; conditions: read-out: Kinase inhibition (%) CHEK1
[14] = system: Mia-Paca-2; experiment: MTT antiproliferative assay, Mia-Paca-2; type: cell-based, human; conditions: Homo sapiens, MIA PaCa-2, 72 h, read-out: IC50 Mia-Paca-2
[15] = biological target: ROS1 (Homo sapiens, UniProt P08922); experiment: Radiometric kinase assay; type: biochemical; conditions: read-out: Kinase inhibition (%) ROS1
[16] = biological target: PDGFRB (PDGFRβ) (Homo sapiens, UniProt P09619); experiment: Radiometric kinase assay; type: biochemical; conditions: read-out: Kinase inhibition (%) PDGFRB (PDGFRβ)
[17] = biological target: T1, AXL (Homo sapiens, UniProt P30530); experiment: Radiometric kinase assay; type: biochemical; conditions: read-out: Kinase inhibition (%) AXL
T1 sequence (P30530 26-894): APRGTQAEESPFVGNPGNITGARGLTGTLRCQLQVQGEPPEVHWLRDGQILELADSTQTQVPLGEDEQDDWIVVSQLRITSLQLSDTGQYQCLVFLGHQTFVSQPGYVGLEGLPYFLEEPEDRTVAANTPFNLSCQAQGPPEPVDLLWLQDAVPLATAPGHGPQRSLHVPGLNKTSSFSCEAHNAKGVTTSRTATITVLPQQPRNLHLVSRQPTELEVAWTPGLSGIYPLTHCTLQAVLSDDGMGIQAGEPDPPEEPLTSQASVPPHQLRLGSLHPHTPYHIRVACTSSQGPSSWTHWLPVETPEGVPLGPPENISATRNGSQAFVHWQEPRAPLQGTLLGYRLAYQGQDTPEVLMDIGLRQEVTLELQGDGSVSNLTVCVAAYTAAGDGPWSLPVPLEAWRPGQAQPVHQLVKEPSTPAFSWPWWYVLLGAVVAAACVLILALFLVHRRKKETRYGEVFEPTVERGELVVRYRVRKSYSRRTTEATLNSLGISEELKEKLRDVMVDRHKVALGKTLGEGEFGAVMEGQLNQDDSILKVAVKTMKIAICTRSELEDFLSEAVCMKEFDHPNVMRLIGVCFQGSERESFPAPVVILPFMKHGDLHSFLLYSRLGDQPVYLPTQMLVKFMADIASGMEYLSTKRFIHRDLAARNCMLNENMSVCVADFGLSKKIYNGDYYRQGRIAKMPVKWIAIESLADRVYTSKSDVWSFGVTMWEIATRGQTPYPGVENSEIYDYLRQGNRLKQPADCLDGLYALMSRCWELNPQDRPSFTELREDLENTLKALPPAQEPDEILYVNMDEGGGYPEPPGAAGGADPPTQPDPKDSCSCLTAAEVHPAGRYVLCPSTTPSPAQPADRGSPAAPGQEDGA

[18] = biological target: ABL1 (Homo sapiens, UniProt P00519); experiment: Radiometric kinase assay; type: biochemical; conditions: read-out: Kinase inhibition (%) ABL1
[19] = system: HT-29; experiment: MTT antiproliferative assay, HT-29; type: cell-based, human; conditions: Homo sapiens, HT-29, 72 h, read-out: IC50 HT-29
[20] = biological target: CDK2/cyclin A (Homo sapiens, UniProt P24941); experiment: Radiometric kinase assay; type: biochemical; conditions: for inhibition at 10 µM: read-out: Kinase inhibition (%) CDK2/cyclin A
[21] = biological target: ALK (Homo sapiens, UniProt Q9UM73); experiment: Radiometric kinase assay; type: biochemical; conditions: read-out: Kinase inhibition (%) ALK
[22] = biological target: PIK3CA (Homo sapiens, UniProt P42336); experiment: Radiometric kinase assay; type: biochemical; conditions: read-out: Kinase inhibition (%) PIK3CA
[23] = biological target: ERBB2 (Her-2) (Homo sapiens, UniProt P04626); experiment: Radiometric kinase assay; type: biochemical; conditions: read-out: Kinase inhibition (%) ERBB2 (Her-2)
[24] = biological target: PDGFRA (PDGFRα) (Homo sapiens, UniProt P16234); experiment: Radiometric kinase assay; type: biochemical; conditions: for inhibition at 10 µM: read-out: Kinase inhibition (%) PDGFRA (PDGFRα)
[25] = biological target: AURKA (Homo sapiens, UniProt O14965); experiment: Radiometric kinase assay; type: biochemical; conditions: read-out: Kinase inhibition (%) AURKA
[26] = system: NIH3T3; experiment: MTT assay, NIH3T3 non-cancer cell line; type: cell-based; conditions: Mus musculus, NIH3T3, 72 h, read-out: IC50 NIH3T3
[27] = biological target: AKT1 (Homo sapiens, UniProt P31749); experiment: Radiometric kinase assay; type: biochemical; conditions: read-out: Kinase inhibition (%) AKT1
[28] = system: EBC-1; experiment: MTT antiproliferative assay, EBC-1; type: cell-based, human; conditions: Homo sapiens, EBC-1, 72 h, read-out: IC50 EBC-1
[29] = biological target: KDR (VEGFR2) (Homo sapiens, UniProt P35968); experiment: Radiometric kinase assay; type: biochemical; conditions: read-out: Kinase inhibition (%) KDR (VEGFR2)
[30] = system: AsPC-1 cells; experiment: Apoptosis by Hoechst 33,258 staining; type: cell-based, human; conditions: AsPC-1, 10 and 30 µM, 48 h
[31] = system: AsPC-1 cells; experiment: Cell cycle test, RNase/PI flow cytometry; type: cell-based, human; conditions: AsPC-1, 3, 10, 30, 50 µM, 48 h
[32] = biological target: AKT2 (Homo sapiens, UniProt P31751); experiment: Radiometric kinase assay; type: biochemical; conditions: read-out: Kinase inhibition (%) AKT2
[33] = biological target: CDK6/cyclinD3 (Homo sapiens, UniProt Q00534); experiment: Radiometric kinase assay; type: biochemical; conditions: read-out: Kinase inhibition (%) CDK6/cyclinD3
[34] = biological target: BRAF (Homo sapiens, UniProt P15056); experiment: Radiometric kinase assay; type: biochemical; conditions: read-out: Kinase inhibition (%) BRAF
[35] = biological target: FLT3 (Homo sapiens, UniProt P36888); experiment: Radiometric kinase assay; type: biochemical; conditions: read-out: Kinase inhibition (%) FLT3
[36] = biological target: MET (Homo sapiens, UniProt P08581); experiment: Radiometric kinase assay; type: biochemical; conditions: read-out: Kinase inhibition (%) MET
[37] = biological target: NTRK2 (TrkB) (Homo sapiens, UniProt Q16620); experiment: Radiometric kinase assay; type: biochemical; conditions: read-out: Kinase inhibition (%) NTRK2 (TrkB)

PDGFRA (PDGFRα), sequence (P16234 24-1089): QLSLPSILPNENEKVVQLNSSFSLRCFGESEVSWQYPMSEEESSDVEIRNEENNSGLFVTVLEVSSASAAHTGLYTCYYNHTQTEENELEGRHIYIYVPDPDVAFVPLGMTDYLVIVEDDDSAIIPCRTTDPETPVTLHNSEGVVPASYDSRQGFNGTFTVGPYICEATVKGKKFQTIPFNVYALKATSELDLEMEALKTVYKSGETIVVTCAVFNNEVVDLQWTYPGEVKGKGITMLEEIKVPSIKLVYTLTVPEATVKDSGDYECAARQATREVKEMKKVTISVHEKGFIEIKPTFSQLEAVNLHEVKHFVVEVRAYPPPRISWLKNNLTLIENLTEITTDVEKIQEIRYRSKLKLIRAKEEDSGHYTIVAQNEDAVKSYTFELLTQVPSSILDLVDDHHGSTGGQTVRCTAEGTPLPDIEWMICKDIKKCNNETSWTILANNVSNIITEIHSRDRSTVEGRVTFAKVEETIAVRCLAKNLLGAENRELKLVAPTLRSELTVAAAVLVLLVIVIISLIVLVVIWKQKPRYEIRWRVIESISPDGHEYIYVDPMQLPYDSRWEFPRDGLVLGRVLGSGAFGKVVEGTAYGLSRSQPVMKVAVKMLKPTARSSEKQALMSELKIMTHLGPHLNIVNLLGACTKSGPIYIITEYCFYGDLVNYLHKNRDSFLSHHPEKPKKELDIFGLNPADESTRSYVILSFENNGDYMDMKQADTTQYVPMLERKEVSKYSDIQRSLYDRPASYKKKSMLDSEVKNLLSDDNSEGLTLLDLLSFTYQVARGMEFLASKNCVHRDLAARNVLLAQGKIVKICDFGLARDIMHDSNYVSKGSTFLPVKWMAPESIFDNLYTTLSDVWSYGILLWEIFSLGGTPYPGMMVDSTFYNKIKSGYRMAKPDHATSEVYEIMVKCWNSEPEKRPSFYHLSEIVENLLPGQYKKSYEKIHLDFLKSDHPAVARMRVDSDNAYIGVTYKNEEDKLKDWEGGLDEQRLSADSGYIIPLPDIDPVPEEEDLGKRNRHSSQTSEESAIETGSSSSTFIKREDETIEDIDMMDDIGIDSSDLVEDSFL
AKT2, sequence (P31751 whole entry): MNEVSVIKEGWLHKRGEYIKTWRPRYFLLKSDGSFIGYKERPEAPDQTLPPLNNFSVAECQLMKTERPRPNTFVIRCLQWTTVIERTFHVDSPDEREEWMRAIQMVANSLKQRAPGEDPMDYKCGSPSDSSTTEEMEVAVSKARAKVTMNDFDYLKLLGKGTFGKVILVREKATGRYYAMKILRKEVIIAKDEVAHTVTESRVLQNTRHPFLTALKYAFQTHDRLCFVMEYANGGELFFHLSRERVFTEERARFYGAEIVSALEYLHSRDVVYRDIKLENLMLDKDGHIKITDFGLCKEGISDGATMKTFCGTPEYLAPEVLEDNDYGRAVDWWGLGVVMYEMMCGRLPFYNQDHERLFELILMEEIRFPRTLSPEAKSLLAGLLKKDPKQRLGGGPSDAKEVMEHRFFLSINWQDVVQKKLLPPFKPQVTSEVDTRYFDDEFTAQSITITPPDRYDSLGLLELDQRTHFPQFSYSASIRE
EGFR, sequence (P00533 25-1210): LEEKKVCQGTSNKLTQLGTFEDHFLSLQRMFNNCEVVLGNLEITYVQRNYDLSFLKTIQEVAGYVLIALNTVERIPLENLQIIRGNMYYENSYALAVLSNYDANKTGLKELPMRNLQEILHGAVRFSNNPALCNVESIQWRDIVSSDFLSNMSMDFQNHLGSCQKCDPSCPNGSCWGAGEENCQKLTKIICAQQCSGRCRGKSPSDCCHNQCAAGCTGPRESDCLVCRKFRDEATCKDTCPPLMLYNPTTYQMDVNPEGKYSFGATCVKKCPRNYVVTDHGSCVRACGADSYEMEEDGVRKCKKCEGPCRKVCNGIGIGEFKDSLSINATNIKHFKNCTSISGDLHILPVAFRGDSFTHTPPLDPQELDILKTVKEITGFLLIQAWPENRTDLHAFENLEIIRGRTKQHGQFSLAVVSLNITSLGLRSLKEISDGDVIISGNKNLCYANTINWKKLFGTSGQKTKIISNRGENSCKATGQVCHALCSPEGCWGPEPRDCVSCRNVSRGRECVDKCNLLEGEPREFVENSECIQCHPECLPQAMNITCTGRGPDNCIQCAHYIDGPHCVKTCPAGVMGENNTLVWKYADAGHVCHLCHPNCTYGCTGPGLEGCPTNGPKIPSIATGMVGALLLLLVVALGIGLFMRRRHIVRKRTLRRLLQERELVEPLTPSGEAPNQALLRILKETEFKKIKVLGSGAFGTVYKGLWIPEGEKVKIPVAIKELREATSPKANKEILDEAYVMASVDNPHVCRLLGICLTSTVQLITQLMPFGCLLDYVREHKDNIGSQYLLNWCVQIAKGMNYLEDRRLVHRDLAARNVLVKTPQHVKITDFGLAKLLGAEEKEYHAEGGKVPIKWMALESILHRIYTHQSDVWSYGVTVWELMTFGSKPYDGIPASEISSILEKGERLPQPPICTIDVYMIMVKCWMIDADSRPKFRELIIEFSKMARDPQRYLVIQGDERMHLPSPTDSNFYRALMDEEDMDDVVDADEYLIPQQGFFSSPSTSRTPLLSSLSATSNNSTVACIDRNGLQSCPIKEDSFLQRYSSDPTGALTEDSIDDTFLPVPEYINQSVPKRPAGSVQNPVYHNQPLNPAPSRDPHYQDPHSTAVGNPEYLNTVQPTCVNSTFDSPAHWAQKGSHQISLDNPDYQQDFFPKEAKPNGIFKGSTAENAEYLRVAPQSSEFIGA
FLT1 (VEGFR1), sequence (P17948 27-1338): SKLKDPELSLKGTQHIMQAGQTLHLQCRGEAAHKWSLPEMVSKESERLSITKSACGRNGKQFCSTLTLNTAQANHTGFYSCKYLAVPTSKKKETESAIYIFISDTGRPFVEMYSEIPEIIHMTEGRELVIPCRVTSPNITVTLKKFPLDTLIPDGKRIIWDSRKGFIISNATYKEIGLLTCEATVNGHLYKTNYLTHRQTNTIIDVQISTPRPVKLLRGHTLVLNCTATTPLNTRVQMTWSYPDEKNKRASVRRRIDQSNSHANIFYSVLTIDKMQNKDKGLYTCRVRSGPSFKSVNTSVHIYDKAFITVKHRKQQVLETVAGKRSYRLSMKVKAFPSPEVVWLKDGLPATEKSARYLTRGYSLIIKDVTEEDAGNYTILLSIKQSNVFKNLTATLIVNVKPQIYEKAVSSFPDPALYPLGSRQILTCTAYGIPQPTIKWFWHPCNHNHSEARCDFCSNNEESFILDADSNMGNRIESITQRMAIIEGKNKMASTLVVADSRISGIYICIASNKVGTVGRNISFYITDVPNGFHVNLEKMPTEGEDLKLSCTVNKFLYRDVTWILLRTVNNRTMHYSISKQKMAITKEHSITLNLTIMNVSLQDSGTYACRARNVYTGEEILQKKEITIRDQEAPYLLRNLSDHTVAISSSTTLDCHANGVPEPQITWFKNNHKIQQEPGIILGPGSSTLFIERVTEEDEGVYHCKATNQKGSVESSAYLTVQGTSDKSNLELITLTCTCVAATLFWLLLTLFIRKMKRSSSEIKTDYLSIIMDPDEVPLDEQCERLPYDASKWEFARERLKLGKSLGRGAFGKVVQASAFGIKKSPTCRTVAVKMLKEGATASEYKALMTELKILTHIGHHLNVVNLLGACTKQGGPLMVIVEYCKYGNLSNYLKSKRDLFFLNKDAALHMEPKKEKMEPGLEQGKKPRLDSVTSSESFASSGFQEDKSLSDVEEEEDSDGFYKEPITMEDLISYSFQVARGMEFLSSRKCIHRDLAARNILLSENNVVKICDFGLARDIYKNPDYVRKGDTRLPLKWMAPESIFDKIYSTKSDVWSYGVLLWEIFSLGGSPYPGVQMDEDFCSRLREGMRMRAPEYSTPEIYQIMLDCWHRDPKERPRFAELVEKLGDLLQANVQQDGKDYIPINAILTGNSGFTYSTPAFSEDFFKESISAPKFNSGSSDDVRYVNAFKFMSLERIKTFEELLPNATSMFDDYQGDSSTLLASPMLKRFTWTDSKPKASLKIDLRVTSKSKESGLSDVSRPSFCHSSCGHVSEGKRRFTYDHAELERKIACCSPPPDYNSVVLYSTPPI
KIT (c-Kit), sequence (P10721 26-976): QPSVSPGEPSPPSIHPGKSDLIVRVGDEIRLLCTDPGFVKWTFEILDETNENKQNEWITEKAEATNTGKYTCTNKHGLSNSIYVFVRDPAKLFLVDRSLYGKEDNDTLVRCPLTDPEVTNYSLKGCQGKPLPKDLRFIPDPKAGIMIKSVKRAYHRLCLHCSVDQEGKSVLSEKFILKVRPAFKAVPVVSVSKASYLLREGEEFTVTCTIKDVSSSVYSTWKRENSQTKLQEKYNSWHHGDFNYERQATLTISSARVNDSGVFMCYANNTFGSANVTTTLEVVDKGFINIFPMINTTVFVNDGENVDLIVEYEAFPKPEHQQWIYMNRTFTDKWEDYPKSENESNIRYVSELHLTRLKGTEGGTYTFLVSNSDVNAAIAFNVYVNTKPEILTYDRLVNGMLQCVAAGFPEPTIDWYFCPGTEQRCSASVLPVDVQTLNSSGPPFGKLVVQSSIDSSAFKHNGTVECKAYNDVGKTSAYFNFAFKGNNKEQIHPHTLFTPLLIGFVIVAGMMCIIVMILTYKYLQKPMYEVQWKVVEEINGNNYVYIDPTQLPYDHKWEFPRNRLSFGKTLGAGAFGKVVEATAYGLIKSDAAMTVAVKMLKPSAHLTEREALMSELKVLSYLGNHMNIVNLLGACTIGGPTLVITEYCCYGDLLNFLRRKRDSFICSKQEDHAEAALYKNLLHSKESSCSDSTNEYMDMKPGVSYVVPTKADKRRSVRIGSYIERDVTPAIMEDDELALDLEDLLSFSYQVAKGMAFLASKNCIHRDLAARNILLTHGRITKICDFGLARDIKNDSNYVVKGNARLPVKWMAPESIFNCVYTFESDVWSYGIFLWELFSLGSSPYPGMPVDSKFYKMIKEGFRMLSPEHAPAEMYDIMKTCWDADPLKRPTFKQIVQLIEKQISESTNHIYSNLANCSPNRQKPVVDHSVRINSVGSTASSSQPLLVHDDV

Row | Compound | IC50 [2] | inhibition at 10 µM [3] | inhibition at 10 µM [4] | IC50 [5] | inhibition at 10 µM [6] | inhibition at 10 µM [7] | inhibition at 10 µM [10] | IC50 [14] | inhibition at 10 µM [16] | inhibition at 10 µM [17] | inhibition at 10 µM [18] | IC50 [19] | inhibition at 10 µM [20] | inhibition at 10 µM [21] | inhibition at 10 µM [24] | IC50 [26] | inhibition at 10 µM [27] | IC50 [28] | inhibition at 10 µM [29] | inhibition at 10 µM [32] | also measured
1 | O=C1C=C(Nc2ccc(OCc3cn(Cc4ccccc4)nn3)cc2)C(=O)c2ccccc21 [Compound 4a, 2-((4-((1-Benzyl-1H-1,2,3-triazol-4-yl)methoxy)phenyl)amino)naphthalene-1,4-dione] | 23.5 ± 5.8 µM | -5% | 43% | > 100 µM | -16% | 14% | 1% | > 100 µM | 16% | 14% | 7% | 21.9 ± 3.9 µM | 73% | 16% | 71% | 85.5 ± 19.6 µM | 19% | 5.1 ± 1.2 µM | 20% | 25% | inhibition at 10 µM [1]: 6%; inhibition at 10 µM [8]: 40%; inhibition at 10 µM [9]: 9%; inhibition at 10 µM [11]: -3%; IC50 [12]: 0.554 ± 0.002 µM; inhibition at 10 µM ([12]; read-out: Kinase inhibition (%) FLT4 (VEGFR3)): 87%; inhibition at 10 µM [13]: -20%; inhibition at 10 µM [15]: -6%; IC50 [20]: 1.67 ± 0.115 µM; inhibition at 10 µM [22]: 14%; inhibition at 10 µM [23]: 3%; IC50 [24]: 0.629 ± 0.087 µM; inhibition at 10 µM [25]: -3%; Apoptosis induction (nuclear morphology) [30]: characteristic features of apoptosis including densely packed chromatin within the nucleus as well as nuclear fragmentation; Effect on cell cycle distribution (S and G2/M phases) [31]: dose-dependently increased the number of cells in the S phase and simultaneously reduced the cells in G2/M phase; inhibition at 10 µM [33]: 9%; inhibition at 10 µM [34]: 3%
2 | O=C1C=C(Nc2ccc(OCc3cn(Cc4ccc(Br)cc4)nn3)cc2)C(=O)c2ccccc21 [Compound 4b, 2-((4-((1-(4-Bromobenzyl)−1H-1,2,3-triazol-4 yl)methoxy)phenyl)amino) naphthalene-1,4-dione] | 30.7 ± 2.2 µM | -9% | 4% | > 100 µM | -17% | 1% | -9% | 1.3 ± 0.4 µM | 17% | 5% | 2% | 56.9 ± 4.3 µM | 32% | 2% | 37% | 50.9 ± 8.8 µM | 9% | 2 ± 1.2 µM | -19% | -10% | inhibition at 10 µM [35]: -3%; inhibition at 10 µM [36]: -8%; inhibition at 10 µM [37]: 13%
